Assay results from US20090253693A1, “2H-BENZO[b][1,4]OXAZIN-3(4H)-ONE DERIVATIVES FOR USE AS STEAROYL CoA DESATURASE INHIBITORS” (priority 2008, published 2009).
Counter-ions that a name gives are not always drawn.

molecular target: T1, SCD (stearoyl-CoA desaturase) (Rattus norvegicus, UniProt P07308); assay: SCD assay with rat liver microsomes ([3H]stearoyl CoA desaturation, adapted from Talamo and Bloch); format: biochemical; conditions: rat liver microsomes 0.2 mg/ml final, 30 min preincubation, stearoyl CoA substrate, 45 min, room temperature
T1 construct: The rat liver microsomes were collected according to the procedure described in Ozols (1990) Methods Enzm, 182:225; from tissue; host or cells: liver microsomes of male Sprague Dawley rats after induction with a carbohydrate-rich diet
T1 sequence (P07308 1-358): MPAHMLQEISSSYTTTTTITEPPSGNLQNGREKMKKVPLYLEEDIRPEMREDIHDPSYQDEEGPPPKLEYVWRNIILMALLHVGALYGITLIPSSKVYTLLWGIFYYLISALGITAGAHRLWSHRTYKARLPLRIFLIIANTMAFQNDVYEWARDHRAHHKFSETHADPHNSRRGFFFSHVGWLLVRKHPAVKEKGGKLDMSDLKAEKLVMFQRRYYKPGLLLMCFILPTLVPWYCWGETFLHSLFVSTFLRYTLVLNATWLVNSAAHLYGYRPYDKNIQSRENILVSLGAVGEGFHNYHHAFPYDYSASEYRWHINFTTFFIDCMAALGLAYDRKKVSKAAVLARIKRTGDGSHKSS
Source text: The identification of compounds of the invention as SCD inhibitors was readily accomplished using the SCD enzyme and microsomal assay procedure described in Talamo and Bloch (1969) Analytical Biochemistry 29:300-304.
The rat liver microsomes were collected according to the procedure described in Ozols (1990) Methods Enzm, 182:225.
Male Sprague Dawley Rats were placed on regimented fasting protocol for one week to stimulate SCD enzymatic activity. 48-hour periods were alternated between feeding and fasting to induce and down-regulate SCD activity with SCD activity being induced via carbohydrate rich diet prior to liver perfusion and collection.
The supernatant was then aspirated off and the collected microsomal pellet washed in 25 mL of Glycerol PBS (1× PBS 7.4, 20% Glycerol) and resuspended in 4-5 volumes of Glycerol PBS.
SCD was determined in the desaturase assay buffer. This assay buffer contained 0.1 M Tris buffer, pH 7.2, 2 mM NADH, 4.8 mM ATP, 0.5 mM CoA, 4.8 mM MgCl2, and 0.1% BSA.
The Procedure for the SCD Assay (Adapted from Talamo and Bloch (1969) Analytical Biochemistry 29:300-304)
1 μl of each compound of Formula I was added to an assay plate by a low volume (0.5-10 μL) multichannel pipette. A DMSO control was also prepared. The microsomes were quickly thawed and added to assay buffer so that a concentration of 0.4 mg/ml was achieved (0.2 mg/ml assay final). 50 μl of the microsome suspension in assay buffer was then added into each well in the compound assay plate, the plate was covered, and the microsomes preincubated with the compounds for 30 minutes on the orbital shaker, 50-75 rpm, at room temperature.
After preincubation, the reaction was initiated by the addition of 50 μl of substrate solution (20 μM Stearoyl CoA, [3H]Stearoyl CoA, 74nCi) to the preincubated microsomes/compound suspensions in MilliQ (Millipore) H2O. The reaction mixtures were then incubated for 45 minutes on the orbital shaker at 50-75 rpm at room temperature.
The reaction was terminated by the addition of 10 μl of 21% trichloroacetic acid (TCA) to the reaction mixture followed incubation on the orbital shaker for 30 minutes at 50-75 rpm at room temperature followed by centrifugation for 5 minutes at 3700 rpm.
50 μl of a 6% Bio-Bead suspension in H2O was added to the reaction mixture and the assay plate was sealed. The Bio-Bead mixture was incubated on the orbital shaker for 1 hour, 100-150 rpm at room temperature, and then the mixture was centrifuged at 2000 g for 5 minutes to pellet the Bio-Beads.
25 μl of the supernatant was harvested from each well and transferred to a detection plate. 100 μl of OptiPhase SuperMix scintillation cocktail (containing sufficient NaOH to neutralize the TCA) was added and the solutions mixed by vigorous shaking (300-400 rpm) for 5 minutes at room temperature.

| IC50 [nM] | Compound |
| --- | --- |
| 1 to 10 | CC(=O)NCCN1C(=O)C(C)Oc2ccc(NCc3ccc(Cl)c(Cl)c3)cc21 (racemic) [Compound 9, (±)-N-(2-(6-(3,4-dichlorobenzylamino)-2-methyl-3-oxo-2H-benzo[b][1,4]oxazin-4(3H)-yl)ethyl)acetamide] |
| 1 to 10 | CC(=O)NCCN1C(=O)C(C)Oc2ccc(NCc3ccc(Cl)c(C(F)(F)F)c3)cc21 (racemic) [Compound 10, (±)-N-(2-(6-(4-chloro-3-(trifluoromethyl)benzylamino)-2-methyl-3-oxo-2H-benzo[b][1,4]oxazin-4(3H)-yl)ethyl)acetamide] |
| 80 | CC1Oc2ccc(NCc3ccc(Cl)c(Cl)c3)cc2N(CCNC(=O)CO)C1=O (racemic) [Compound 11, (±)-N-(2-(6-(3,4-dichlorobenzylamino)-2-methyl-3-oxo-2H-benzo[b][1,4]oxazin-4(3H)-yl)ethyl)-2-hydroxyacetamide] |
| 1 to 10 | CC1Oc2ccc(NCc3ccc(Cl)c(C(F)(F)F)c3)cc2N(CCNC(=O)CO)C1=O (racemic) [Compound 12, (±)-N-(2-(6-(4-chloro-3-(trifluoromethyl)benzylamino)-2-methyl-3-oxo-2H-benzo[b][1,4]oxazin-4(3H)-yl)ethyl)-2-hydroxyacetamide] |
| 53.5 | NC(=O)CCN1C(=O)COc2ccc(NCc3ccc(Cl)c(Cl)c3)cc21 [Compound 1, 3-(6-(3,4-dichlorobenzylamino)-3-oxo-2H-benzo[b][1,4]oxazin-4(3H)-yl)propanamide] |
| 14900 | CC(=O)NCCN1C(=O)COc2ccc(NCc3ccccc3)cc21 [Compound 2, N-(2-(6-(benzylamino)-3-oxo-2H-benzo[b][1,4]oxazin-4(3H)-yl)ethyl)acetamide hydrochloride] |
| 10.7 | CC(=O)NCCN1C(=O)COc2ccc(NCc3ccc(Cl)c(Cl)c3)cc21 [Compound 3, N-(2-(6-(3,4-dichlorobenzylamino)-3-oxo-2H-benzo[b][1,4]oxazin-4(3H)-yl)ethyl)acetamide hydrochloride] |
| 22200 | O=C1COc2ccc(NCc3ccc(Cl)c(Cl)c3)cc2N1CCOc1ccccc1 [Compound 4, 6-(3,4-dichlorobenzylamino)-4-(2-phenoxyethyl)-2H-benzo[b][1,4]oxazin-3(4H)-one] |
| 4.87 | CC(=O)NCCN1C(=O)COc2ccc(NCc3ccc(Cl)c(C(F)(F)F)c3)cc21 [Compound 5, N-(2-(6-(4-chloro-3-(trifluoromethyl)benzylamino)-3-oxo-2H-benzo[b][1,4]oxazin-4(3H)-yl)ethyl)acetamide hydrochloride] |
| 7.8 | CC(=O)NCCN1C(=O)COc2ccc(NCc3ccc(F)c(C(F)(F)F)c3)cc21 [Compound 6, N-(2-(6-(4-fluoro-3-(trifluoromethyl)benzylamino)-3-oxo-2H-benzo[b][1,4]oxazin-4(3H)-yl)ethyl)acetamide hydrochloride] |
| 2.52 | O=C(NCCN1C(=O)COc2ccc(NCc3ccc(Cl)c(Cl)c3)cc21)c1ccccc1 [Compound 7, N-(2-(6-(3,4-dichlorobenzylamino)-3-oxo-2H-benzo[b][1,4]oxazin-4(3H)-yl)ethyl)benzamide] |
| 1.39 | O=C(CO)NCCN1C(=O)COc2ccc(NCc3ccc(Cl)c(Cl)c3)cc21 [Compound 8, N-(2-(6-(3,4-dichlorobenzylamino)-3-oxo-2H-benzo[b][1,4]oxazin-4(3H)-yl)ethyl)-2-hydroxyacetamide hydrochloride] |
